# Measured values published in patent publication US20070082870A1, “Pharmaceutical formulations of cyclodextrins and antifungal azole compounds” (priority 2005, published 2007).
# Columns and labels:
# [1] = Equilibrium solubility of ketoconazole in water and buffers at 10 wt % HBenBCD; type: physicochemical
# Method: The following is a typical procedure for determining the solubility of a drug in a given solvent. To each well of a 2 mL 96-well polypropylene mixing plate was added excess drug (ca. 5-10 mg). […] The cavities on the loading plate were arranged so that they corresponded to the individual wells of the 96-well mixing plate. A line of drug was placed at one end of the loading plate and a glass plate was used to distribute the drug into each cavity. The 96-well mixing plate was placed on the loading plate then inverted and tapped so that the drug dropped into the appropriate well of the mixing plate.
# (§1) To each well of the pre-loaded 96-well mixing plate was added 300-500 μL of water or buffer (blanks with no CD) or the appropriate CD solution. Typically, each determination was in triplicate. The blanks were used to determine the intrinsic solubility (So) of drug in that solution and the well containing the CD solutions were used to determine the solubility of drug due to CD (Sw). After addition of the stock solutions, the plate was sealed using aluminum foil with a non-volatile adhesive on one surface. The plate was placed on a rotary shaking plate (Helidolph Titramax 1000) and the plate was shaken at 800-1200 rpm at 23° C.±2° for 48-72 h. During the mixing period, the plate was inspected to insure that each well contained undissolved, excess drug. Additional drug was added if necessary.
# (§2) Following the mixing period, the solutions in each well were transferred to the corresponding wells of a 96-well 2 mL multiscreen filter plate using a multi-channel pipette. The bottom of each well was a hydrophilic membrane (Millipore Corporation). The filter plate was placed on top of a vacuum manifold and the solutions were filtered at ca. 20 mm Hg into the corresponding wells of a 2 mL storage plate. The duration of the filtration period was typically no more than 60 seconds. The storage plate was then sealed with a silicon mat and samples were removed for analysis as appropriate.
# The drug content in each well can be determined by a number of methods. Ultraviolet spectroscopy (UV) or high pressure liquid chromatography (HPLC) is preferred. In the present example, UV spectroscopy was used. […] Measurements were made using a SpectraMax Plus 384 Molecular Devices multi-well plate reader. Absorbance was converted to drug concentration using the appropriate absorbtivity for the drug. The drug concentrations were then exported to the appropriate software package for final analysis.
# The general protocol described in Example 1 was utilized to determine the equilibrium solubility of ketoconazole in water and buffers at 10 wt % HBenBCD concentration.
# physchem = type: physicochemical; details: for solubility: 23 °C, thermodynamic from solid
# Method: (§3) The following is a typical procedure for determining the solubility of a drug in a given solvent. To each well of a 2 mL 96-well polypropylene mixing plate was added excess drug (ca. 5-10 mg). The drug was typically added by using a metal loading plate having cavities that will hold an approximate predetermined amount of drug. The cavities on the loading plate were arranged so that they corresponded to the individual wells of the 96-well mixing plate. A line of drug was placed at one end of the loading plate and a glass plate was used to distribute the drug into each cavity. The 96-well mixing plate was placed on the loading plate then inverted and tapped so that the drug dropped into the appropriate well of the mixing plate.
# as §1, §2
# (§4) The drug content in each well can be determined by a number of methods. Ultraviolet spectroscopy (UV) or high pressure liquid chromatography (HPLC) is preferred. In the present example, UV spectroscopy was used. Typically, 10-20 μL of drug solution was transferred to the corresponding well of a 96-well measurement plate (UV-STAR plates from Greiner with a spectral range of 190-400 nm) and diluted with 1/1 water/ethanol so that the absorbance was in the linear response range. Measurements were made using a SpectraMax Plus 384 Molecular Devices multi-well plate reader. Absorbance was converted to drug concentration using the appropriate absorbtivity for the drug. The drug concentrations were then exported to the appropriate software package for final analysis.
# The general protocol described in Example 1 was utilized to determine the equilibrium solubility of voriconazole in water and buffers at 10 wt % HBenBCD concentration.
# [2] = type: physicochemical; details: pH 3
# Method: as §3
# (§5) To each well of the pre-loaded 96-well mixing plate was added 300-500 μL of water or buffer (blanks with no CD) or the appropriate CD solution. […]
# as §4, with “Ultraviolet spectroscopy (UV) or high pressure liquid chromatography (HPLC) is preferred. In the present example, UV spectroscopy was used.” left out, “The drug concentrations were then exported to the appropriate software package for final analysis.” left out
# [3] = Equilibrium solubility of clotrimazole in water, 0 to ca. 25 wt % cyclodextrin; type: physicochemical
# Method: as §3, §5
# as §4, with “Ultraviolet spectroscopy (UV) or high pressure liquid chromatography (HPLC) is preferred. In the present example, UV spectroscopy was used.” left out, “The drug concentrations were then exported to the appropriate software package for final analysis.” left out
# [4] = Equilibrium solubility of itraconazole in water and buffers at 10 wt % cyclodextrin; type: physicochemical; details: water
# Method: Stock solutions of cyclodextrins were prepared by dissolving an accurately weighed amount of previously dried cyclodextrin in water or in buffer to give a final cyclodextrin concentration of 10 wt %. In this example, the cyclodextrins were HBenBCD, HPBCD, and SBEBCD. The buffers were 0.05 M pH3 phosphate, 0.05 M pH 3 citrate, and 0.05 M pH 4.8 acetate.
# as §3, §1, §2, §4
# [5] = Equilibrium solubility of itraconazole in water and pH 3 phosphate buffer, 0 to 25 wt % cyclodextrin; type: physicochemical
# Method: as §3, §5
# as §4, with “Ultraviolet spectroscopy (UV) or high pressure liquid chromatography (HPLC) is preferred. In the present example, UV spectroscopy was used.” left out, “The drug concentrations were then exported to the appropriate software package for final analysis.” left out
compound,measurement,setting,value
CC(=O)N1CCN(c2ccc(OC[C@H]3CO[C@](Cn4ccnc4)(c4ccc(Cl)cc4Cl)O3)cc2)CC1 (racemic) [ketoconazole],Sw/So,"[1]; pH 3 D,L-tartrate",2.7
same,Sw/So,[1]; pH 3 D-tartrate,3.2
same,Sw/So,[1]; pH 3 L-tartrate,2.8
same,Sw/So,[1]; pH 3 citrate,3.3
same,Sw/So,[1]; pH 3 phosphate,4.3
same,Sw/So,[1]; pH 4.8 acetate,95.5
same,Sw/So,[1]; pH 7.3 phosphate,548.9
same,Sw/So,[1]; water,600.4
"C[C@@H](c1ncncc1F)[C@](O)(Cn1cncn1)c1ccc(F)cc1F (single isomer, unassigned) [voriconazole]",Sw/So,physchem,9.8
same,solubility,"physchem; pH 1.2, aqueous with cosolvent or surfactant or cyclodextrin, Sw (solubility with CD)",10.2 mg/mL
same,solubility,"physchem; pH 1.2, simulated gastric fluid, So (intrinsic solubility)",3.2 mg/mL
same,Sw/So,physchem; pH 1.2,3.2
same,Sw/So,physchem; pH 7.3,9.6
same,more voriconazole solubilized by HBenBCD than SBEBCD,[2],25%
Clc1ccccc1C(c1ccccc1)(c1ccccc1)n1ccnc1 [clotrimazole],"Sw/So for HBenBCD, fold greater than that for HPBCD",[3]; ca. 25 wt % CD,2.4 X
same,Sw/So,[3]; ca. 25 wt % HBenBCD,12.3
itraconazole,Sw/So,[4]; 10 wt % HBenBCD,17.2
same,solubility of itraconazole due to CD (Sw),[4]; 10 wt % HBenBCD,0.515 ng/mL
same,Sw/So,[4]; 10 wt % HPBCD,3.8
same,Sw/So,[4]; 10 wt % SBEBCD,4.2
same,intrinsic solubility (So) of itraconazole,[4]; no cyclodextrin,0.03 ng/mL
same,"Sw/So for HBenBCD, fold greater than that for HPBCD",[5]; ca. 25 wt % CD,4 X
same,Sw/So,[5]; ca. 25 wt % HBenBCD,132
